{"source": "the NIST ThermoML archive (doi:10.1016/j.fluid.2015.04.017)", "assay": "xn = mol fraction of the nth substance listed", "details": "101 kPa, Liquid; for viscosity: Concentric cylinders viscometry; for mass density: Vibrating tube method", "note": "± gives the expanded uncertainty stated by the source."}
{"smiles": "CCOC(=O)C(C)O", "note": "(stereo not drawn) [DL-ethyl lactate] + CCC(C)=O", "values": [{"measurement": "viscosity", "setting": "288.15 K, x1 = 0.0999", "value": "0.5127 ± 0.0066", "unit": "mPa·s"}, {"measurement": "viscosity", "setting": "288.15 K, x1 = 0.1999", "value": "0.6157 ± 0.0075", "unit": "mPa·s"}, {"measurement": "viscosity", "setting": "288.15 K, x1 = 0.3001", "value": "0.7578 ± 0.0087", "unit": "mPa·s"}, {"measurement": "viscosity", "setting": "288.15 K, x1 = 0.4001", "value": "0.9204 ± 0.01", "unit": "mPa·s"}, {"measurement": "viscosity", "setting": "288.15 K, x1 = 0.5", "value": "1.128 ± 0.012", "unit": "mPa·s"}, {"measurement": "viscosity", "setting": "288.15 K, x1 = 0.5998", "value": "1.384 ± 0.015", "unit": "mPa·s"}, {"measurement": "viscosity", "setting": "288.15 K, x1 = 0.6999", "value": "1.707 ± 0.018", "unit": "mPa·s"}, {"measurement": "viscosity", "setting": "288.15 K, x1 = 0.8", "value": "2.113 ± 0.022", "unit": "mPa·s"}, {"measurement": "viscosity", "setting": "288.15 K, x1 = 0.9001", "value": "2.63 ± 0.027", "unit": "mPa·s"}, {"measurement": "viscosity", "setting": "288.15 K, x1 = 1", "value": "3.207 ± 0.033", "unit": "mPa·s"}, {"measurement": "mass density", "setting": "288.15 K, x1 = 0.0999", "value": "840.096 ± 0.15", "unit": "kg/m3"}, {"measurement": "mass density", "setting": "288.15 K, x1 = 0.1999", "value": "868.347 ± 0.15", "unit": "kg/m3"}, {"measurement": "mass density", "setting": "288.15 K, x1 = 0.3001", "value": "894.852 ± 0.15", "unit": "kg/m3"}, {"measurement": "mass density", "setting": "288.15 K, x1 = 0.4001", "value": "919.605 ± 0.15", "unit": "kg/m3"}, {"measurement": "mass density", "setting": "288.15 K, x1 = 0.5", "value": "942.723 ± 0.16", "unit": "kg/m3"}, {"measurement": "mass density", "setting": "288.15 K, x1 = 0.5998", "value": "964.577 ± 0.17", "unit": "kg/m3"}, {"measurement": "mass density", "setting": "288.15 K, x1 = 0.6999", "value": "985.434 ± 0.18", "unit": "kg/m3"}, {"measurement": "mass density", "setting": "288.15 K, x1 = 0.8", "value": "1005.13 ± 0.2", "unit": "kg/m3"}, {"measurement": "mass density", "setting": "288.15 K, x1 = 0.9001", "value": "1023.3 ± 0.23", "unit": "kg/m3"}, {"measurement": "mass density", "setting": "288.15 K, x1 = 1", "value": "1039.28 ± 0.26", "unit": "kg/m3"}, {"measurement": "viscosity", "setting": "293.15 K, x1 = 0.0999", "value": "0.4886 ± 0.0064", "unit": "mPa·s"}, {"measurement": "viscosity", "setting": "293.15 K, x1 = 0.1999", "value": "0.5824 ± 0.0072", "unit": "mPa·s"}, {"measurement": "viscosity", "setting": "293.15 K, x1 = 0.3001", "value": "0.7086 ± 0.0083", "unit": "mPa·s"}, {"measurement": "viscosity", "setting": "293.15 K, x1 = 0.4001", "value": "0.8532 ± 0.0095", "unit": "mPa·s"}, {"measurement": "viscosity", "setting": "293.15 K, x1 = 0.5", "value": "1.035 ± 0.011", "unit": "mPa·s"}, {"measurement": "viscosity", "setting": "293.15 K, x1 = 0.5998", "value": "1.254 ± 0.013", "unit": "mPa·s"}, {"measurement": "viscosity", "setting": "293.15 K, x1 = 0.6999", "value": "1.527 ± 0.016", "unit": "mPa·s"}, {"measurement": "viscosity", "setting": "293.15 K, x1 = 0.8", "value": "1.862 ± 0.019", "unit": "mPa·s"}, {"measurement": "viscosity", "setting": "293.15 K, x1 = 0.9001", "value": "2.287 ± 0.024", "unit": "mPa·s"}, {"measurement": "viscosity", "setting": "293.15 K, x1 = 1", "value": "2.752 ± 0.028", "unit": "mPa·s"}, {"measurement": "mass density", "setting": "293.15 K, x1 = 0.0999", "value": "834.849 ± 0.15", "unit": "kg/m3"}, {"measurement": "mass density", "setting": "293.15 K, x1 = 0.1999", "value": "863.068 ± 0.15", "unit": "kg/m3"}, {"measurement": "mass density", "setting": "293.15 K, x1 = 0.3001", "value": "889.537 ± 0.15", "unit": "kg/m3"}, {"measurement": "mass density", "setting": "293.15 K, x1 = 0.4001", "value": "914.27 ± 0.15", "unit": "kg/m3"}, {"measurement": "mass density", "setting": "293.15 K, x1 = 0.5", "value": "937.369 ± 0.16", "unit": "kg/m3"}, {"measurement": "mass density", "setting": "293.15 K, x1 = 0.5998", "value": "959.204 ± 0.17", "unit": "kg/m3"}, {"measurement": "mass density", "setting": "293.15 K, x1 = 0.6999", "value": "980.043 ± 0.18", "unit": "kg/m3"}, {"measurement": "mass density", "setting": "293.15 K, x1 = 0.8", "value": "999.721 ± 0.2", "unit": "kg/m3"}, {"measurement": "mass density", "setting": "293.15 K, x1 = 0.9001", "value": "1017.88 ± 0.23", "unit": "kg/m3"}, {"measurement": "mass density", "setting": "293.15 K, x1 = 1", "value": "1033.84 ± 0.26", "unit": "kg/m3"}, {"measurement": "viscosity", "setting": "298.15 K, x1 = 0.0999", "value": "0.4651 ± 0.0063", "unit": "mPa·s"}, {"measurement": "viscosity", "setting": "298.15 K, x1 = 0.1999", "value": "0.5514 ± 0.0069", "unit": "mPa·s"}, {"measurement": "viscosity", "setting": "298.15 K, x1 = 0.3001", "value": "0.6643 ± 0.0079", "unit": "mPa·s"}, {"measurement": "viscosity", "setting": "298.15 K, x1 = 0.4001", "value": "0.7937 ± 0.009", "unit": "mPa·s"}, {"measurement": "viscosity", "setting": "298.15 K, x1 = 0.5", "value": "0.9526 ± 0.01", "unit": "mPa·s"}, {"measurement": "viscosity", "setting": "298.15 K, x1 = 0.5998", "value": "1.141 ± 0.012", "unit": "mPa·s"}, {"measurement": "viscosity", "setting": "298.15 K, x1 = 0.6999", "value": "1.375 ± 0.015", "unit": "mPa·s"}, {"measurement": "viscosity", "setting": "298.15 K, x1 = 0.8", "value": "1.658 ± 0.017", "unit": "mPa·s"}, {"measurement": "viscosity", "setting": "298.15 K, x1 = 0.9001", "value": "2.007 ± 0.021", "unit": "mPa·s"}, {"measurement": "viscosity", "setting": "298.15 K, x1 = 1", "value": "2.39 ± 0.025", "unit": "mPa·s"}, {"measurement": "mass density", "setting": "298.15 K, x1 = 0.0999", "value": "829.575 ± 0.15", "unit": "kg/m3"}, {"measurement": "mass density", "setting": "298.15 K, x1 = 0.1999", "value": "857.764 ± 0.15", "unit": "kg/m3"}, {"measurement": "mass density", "setting": "298.15 K, x1 = 0.3001", "value": "884.198 ± 0.15", "unit": "kg/m3"}, {"measurement": "mass density", "setting": "298.15 K, x1 = 0.4001", "value": "908.905 ± 0.15", "unit": "kg/m3"}, {"measurement": "mass density", "setting": "298.15 K, x1 = 0.5", "value": "931.98 ± 0.16", "unit": "kg/m3"}, {"measurement": "mass density", "setting": "298.15 K, x1 = 0.5998", "value": "953.795 ± 0.17", "unit": "kg/m3"}, {"measurement": "mass density", "setting": "298.15 K, x1 = 0.6999", "value": "974.621 ± 0.18", "unit": "kg/m3"}, {"measurement": "mass density", "setting": "298.15 K, x1 = 0.8", "value": "994.289 ± 0.2", "unit": "kg/m3"}, {"measurement": "mass density", "setting": "298.15 K, x1 = 0.9001", "value": "1012.45 ± 0.22", "unit": "kg/m3"}, {"measurement": "mass density", "setting": "298.15 K, x1 = 1", "value": "1028.39 ± 0.25", "unit": "kg/m3"}, {"measurement": "viscosity", "setting": "303.15 K, x1 = 0.0999", "value": "0.4429 ± 0.0061", "unit": "mPa·s"}, {"measurement": "viscosity", "setting": "303.15 K, x1 = 0.1999", "value": "0.5214 ± 0.0067", "unit": "mPa·s"}, {"measurement": "viscosity", "setting": "303.15 K, x1 = 0.3001", "value": "0.6229 ± 0.0075", "unit": "mPa·s"}, {"measurement": "viscosity", "setting": "303.15 K, x1 = 0.4001", "value": "0.7397 ± 0.0086", "unit": "mPa·s"}, {"measurement": "viscosity", "setting": "303.15 K, x1 = 0.5", "value": "0.8816 ± 0.0099", "unit": "mPa·s"}, {"measurement": "viscosity", "setting": "303.15 K, x1 = 0.5998", "value": "1.046 ± 0.011", "unit": "mPa·s"}, {"measurement": "viscosity", "setting": "303.15 K, x1 = 0.6999", "value": "1.248 ± 0.013", "unit": "mPa·s"}, {"measurement": "viscosity", "setting": "303.15 K, x1 = 0.8", "value": "1.489 ± 0.016", "unit": "mPa·s"}, {"measurement": "viscosity", "setting": "303.15 K, x1 = 0.9001", "value": "1.783 ± 0.019", "unit": "mPa·s"}, {"measurement": "viscosity", "setting": "303.15 K, x1 = 1", "value": "2.097 ± 0.022", "unit": "mPa·s"}, {"measurement": "mass density", "setting": "303.15 K, x1 = 0.0999", "value": "824.277 ± 0.15", "unit": "kg/m3"}, {"measurement": "mass density", "setting": "303.15 K, x1 = 0.1999", "value": "852.434 ± 0.15", "unit": "kg/m3"}, {"measurement": "mass density", "setting": "303.15 K, x1 = 0.3001", "value": "878.836 ± 0.15", "unit": "kg/m3"}, {"measurement": "mass density", "setting": "303.15 K, x1 = 0.4001", "value": "903.522 ± 0.16", "unit": "kg/m3"}, {"measurement": "mass density", "setting": "303.15 K, x1 = 0.5", "value": "926.577 ± 0.16", "unit": "kg/m3"}, {"measurement": "mass density", "setting": "303.15 K, x1 = 0.5998", "value": "948.373 ± 0.17", "unit": "kg/m3"}, {"measurement": "mass density", "setting": "303.15 K, x1 = 0.6999", "value": "969.181 ± 0.18", "unit": "kg/m3"}, {"measurement": "mass density", "setting": "303.15 K, x1 = 0.8", "value": "988.835 ± 0.2", "unit": "kg/m3"}, {"measurement": "mass density", "setting": "303.15 K, x1 = 0.9001", "value": "1006.99 ± 0.22", "unit": "kg/m3"}, {"measurement": "mass density", "setting": "303.15 K, x1 = 1", "value": "1022.92 ± 0.25", "unit": "kg/m3"}]}
